In the NIST ThermoML archive (doi:10.1021/acs.jced.6b00178):

Test: xn = mol fraction of the nth substance listed
Conditions: 100 kPa, Liquid; for viscosity: Concentric cylinders viscometry; for mass density: Vibrating tube method

CCCCn1cc[n+](C)c1.N#CN=C=[N-] [1-butyl-3-methylimidazolium dicyanamide] + CCCC[n+]1ccn(C)c1.O=S(=O)([N-]S(=O)(=O)C(F)(F)F)C(F)(F)F
Conditions	mass density, x2 = 0 [kg/m3]	mass density, x2 = 0.251 [kg/m3]	mass density, x2 = 0.457 [kg/m3]	mass density, x2 = 0.749 [kg/m3]	viscosity, x2 = 0 [mPa·s]	viscosity, x2 = 0.251 [mPa·s]	viscosity, x2 = 0.457 [mPa·s]	viscosity, x2 = 0.749 [mPa·s]
283.15 K	1070	1194.3	1280.8	1381.8	58.35	72.33	82.5	95.81
288.15 K	1066.7	1190.5	1276.6	1377.2	45.91	56.47	64.11	73.99
293.15 K	1063.4	1186.7	1272.5	1372.7	36.83	44.98	50.83	58.31
298.15 K	1060.2	1183	1268.5	1368.1	30.08	36.45	41.02	46.82
303.15 K	1057	1179.3	1264.4	1363.6	24.94	30.02	33.66	38.18
308.15 K	1053.8	1175.7	1260.4	1359.2	20.98	25.08	28.01	31.61
313.15 K	1050.6	1172	1256.4	1354.7	17.86	21.22	23.6	26.5
318.15 K	1047.5	1168.4	1252.4	1350.3	15.38	18.16	20.12	22.48
323.15 K	1044.4	1164.9	1248.5	1345.9	13.38	15.7	17.33	19.27
328.15 K	1041.3	1161.3	1244.6	1341.5	11.74	13.69	15.06	16.68
333.15 K	1038.2	1157.8	1240.7	1337.2	10.38	12.05	13.27	14.56
338.15 K	1035.2	1154.3	1236.8	1332.9	9.251	10.68	11.72	12.82
343.15 K	1032.1	1150.8	1233	1328.6	8.298	9.53	10.43	11.36
348.15 K	1029.1	1147.3	1229.2	1324.3	7.488	8.56	9.335	10.14
353.15 K	1026.1	1143.8	1225.4	1320	6.794	7.728	8.408	9.098
358.15 K	1023.2	1140.4	1221.6	1315.8	6.196	7.016	7.615	8.211
363.15 K	1020.3	1137	1217.9	1311.6	5.677	6.403	6.932	7.449

CCCCn1cc[n+](C)c1.F[P-](F)(F)(F)(F)F [1-butyl-3-methylimidazolium hexafluorophosphate] + CCCC[n+]1ccn(C)c1.O=S(=O)([N-]S(=O)(=O)C(F)(F)F)C(F)(F)F
Conditions	mass density, x2 = 0 [kg/m3]	mass density, x2 = 0.25 [kg/m3]	mass density, x2 = 0.5 [kg/m3]	mass density, x2 = 0.748 [kg/m3]	viscosity, x2 = 0 [mPa·s]	viscosity, x2 = 0.25 [mPa·s]	viscosity, x2 = 0.5 [mPa·s]	viscosity, x2 = 0.748 [mPa·s]
283.15 K	1379.9	1402.5	1421.1	1437.4	794.33	360.25	221.31	148.25
288.15 K	1376.5	1398.3	1417.2	1433.1	557.27	264.71	166.04	112.57
293.15 K	1372	1393.8	1412.6	1428.4	393.86	196.39	126.16	87.23
298.15 K	1367.6	1389.4	1408	1423.7	285.02	148.96	97.74	68.88
303.15 K	1363.4	1385	1403.5	1419	210.93	115.08	77.09	55.3
308.15 K	1359.2	1380.7	1399	1414.3	159.46	90.44	61.82	45.08
313.15 K	1355.1	1376.4	1394.5	1409.7	122.78	72.18	50.31	37.25
318.15 K	1351	1372.1	1390	1405.1	96.28	58.45	41.52	31.17
323.15 K	1347	1367.9	1385.6	1400.5	76.72	47.96	34.68	26.38
328.15 K	1342.9	1363.6	1381.2	1395.9	62.04	39.84	29.3	22.56
333.15 K	1338.9	1359.4	1376.7	1391.3	50.85	33.47	25	19.47
338.15 K	1334.9	1355.2	1372.3	1386.8	42.2	28.39	21.53	16.96
343.15 K	1330.9	1351	1368	1382.3	35.43	24.3	18.7	14.88
348.15 K	1326.9	1346.9	1363.6	1377.9	30.04	20.99	16.38	13.15
353.15 K	1323	1342.7	1359.3	1373.4	25.72	18.29	14.44	11.7
358.15 K	1319	1338.6	1355.1	1369	22.22	16.04	12.82	10.47
363.15 K	1315.2	1334.6	1350.8	1364.6	19.36	14.17	11.46	9.428

CCCCn1cc[n+](C)c1.N#C[S-] [1-butyl-3-methylimidazolium thiocyanate] + CCCC[n+]1ccn(C)c1.O=S(=O)([N-]S(=O)(=O)C(F)(F)F)C(F)(F)F
Conditions	mass density, x2 = 0 [kg/m3]	mass density, x2 = 0.25 [kg/m3]	mass density, x2 = 0.5 [kg/m3]	mass density, x2 = 0.748 [kg/m3]	viscosity, x2 = 0 [mPa·s]	viscosity, x2 = 0.25 [mPa·s]	viscosity, x2 = 0.5 [mPa·s]	viscosity, x2 = 0.748 [mPa·s]
283.15 K	1079.2	1206.2	1305.3	1385.3	139.54	133.49	124.13	115.12
288.15 K	1076.2	1202.6	1301.2	1380.7	104.51	101.08	94.68	88.29
293.15 K	1073.2	1199	1297.1	1376.2	82.91	80.92	76.17	71.22
298.15 K	1070.2	1195.4	1293.1	1371.7	62.63	61.69	58.5	55.06
303.15 K	1067.2	1191.8	1289	1367.3	49.94	49.55	47.23	44.62
308.15 K	1064.2	1188.3	1285	1362.8	40.48	40.42	38.7	36.7
313.15 K	1061.3	1184.7	1281	1358.4	34.08	34.22	32.85	31.22
318.15 K	1058.4	1181.2	1277.1	1354	27.8	28.05	27.03	25.81
323.15 K	1055.5	1177.7	1273.1	1349.7	23.49	23.79	22.97	22.01
328.15 K	1052.6	1174.3	1269.2	1345.3	20.06	20.39	19.74	18.96
333.15 K	1049.8	1170.8	1265.3	1341	17.58	17.91	17.36	16.7
338.15 K	1047	1167.4	1261.5	1336.7	15.08	15.38	14.94	14.44
343.15 K	1044.1	1164	1257.6	1332.4	13.24	13.54	13.16	12.74
348.15 K	1041.4	1160.6	1253.8	1328.1	11.71	12	11.67	11.33
353.15 K	1038.6	1157.3	1250	1323.9	10.67	10.92	10.65	10.36
358.15 K	1035.8	1154	1246.2	1319.7	9.355	9.577	9.351	9.114
363.15 K	1033.1	1150.7	1242.4	1315.5	8.436	8.621	8.44	8.242
